The record followed here is ChEMBL document CHEMBL1914458 (Eur J Med Chem, 2011).

Experiment [1] is described as follows: Antioxidant activity assessed as trolox equivalent of AAPH-induced peroxyl radical scavenging activity at 0.5 to 10 uM after 10 mins by oxygen radical absorbance capacity-fluorescein assay. The class given is functional.
Experiment [2] concerns the target Cholinesterase (Equus caballus, UniProt P81908).
Description: Inhibition of equine serum BuChE using butyrylthiocholine chloride as substrate preincubated for 15 mins by Ellman's method
For experiment [3], the target named is Acetylcholinesterase (Electrophorus electricus, UniProt O42275).
Description: Inhibition of electric eel AChE using acetylthiocholine chloride substrate as substrate preincubated for 15 mins by Ellman's method
Experiment [4] in a line: Inhibition of self-mediated amyloid beta (1 to 42) aggregation at 10 uM after 48 hrs by thioflavin T fluorescence assay.
Experiment [5] is described as follows: Inhibition of self-mediated amyloid beta (1 to 42) aggregation at 20 uM after 48 hrs by thioflavin T fluorescence assay.

Cholinesterase, sequence (P81908 whole entry): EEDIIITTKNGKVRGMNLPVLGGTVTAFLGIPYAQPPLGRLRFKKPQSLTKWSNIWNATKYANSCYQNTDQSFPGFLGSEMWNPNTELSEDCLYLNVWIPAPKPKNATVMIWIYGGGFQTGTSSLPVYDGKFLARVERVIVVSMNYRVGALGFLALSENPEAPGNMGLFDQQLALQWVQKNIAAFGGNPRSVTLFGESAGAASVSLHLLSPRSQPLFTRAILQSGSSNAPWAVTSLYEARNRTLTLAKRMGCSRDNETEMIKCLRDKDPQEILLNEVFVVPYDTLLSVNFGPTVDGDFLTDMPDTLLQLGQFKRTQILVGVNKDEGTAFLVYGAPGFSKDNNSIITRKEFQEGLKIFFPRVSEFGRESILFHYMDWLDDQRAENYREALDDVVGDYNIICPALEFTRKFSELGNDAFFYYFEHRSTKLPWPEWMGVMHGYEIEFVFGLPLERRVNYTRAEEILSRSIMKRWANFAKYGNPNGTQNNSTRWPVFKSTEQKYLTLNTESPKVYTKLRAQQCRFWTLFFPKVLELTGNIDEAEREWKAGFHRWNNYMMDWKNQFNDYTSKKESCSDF
Acetylcholinesterase, sequence (O42275 whole entry): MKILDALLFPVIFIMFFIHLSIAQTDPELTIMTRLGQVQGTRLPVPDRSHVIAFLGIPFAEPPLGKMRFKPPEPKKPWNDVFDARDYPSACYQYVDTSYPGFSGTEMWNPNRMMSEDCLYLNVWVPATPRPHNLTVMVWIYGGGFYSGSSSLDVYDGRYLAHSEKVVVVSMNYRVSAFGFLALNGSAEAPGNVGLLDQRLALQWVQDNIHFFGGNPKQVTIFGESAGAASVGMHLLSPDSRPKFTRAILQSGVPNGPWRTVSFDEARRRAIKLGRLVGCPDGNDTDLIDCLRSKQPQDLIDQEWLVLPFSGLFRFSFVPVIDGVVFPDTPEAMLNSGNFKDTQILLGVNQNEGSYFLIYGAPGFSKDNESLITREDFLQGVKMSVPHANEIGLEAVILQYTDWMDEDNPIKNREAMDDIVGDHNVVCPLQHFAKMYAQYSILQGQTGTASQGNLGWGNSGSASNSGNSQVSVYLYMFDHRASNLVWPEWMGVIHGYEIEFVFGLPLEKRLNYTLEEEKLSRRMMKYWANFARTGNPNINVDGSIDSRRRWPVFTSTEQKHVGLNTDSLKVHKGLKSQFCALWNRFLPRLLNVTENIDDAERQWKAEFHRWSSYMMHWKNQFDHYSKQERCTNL

The term IC50 denotes the concentration that inhibits the measured activity by half. The low end stands for higher potency, the high end for lower potency. For the molecule `COc1ccc2cc3[n+](cc2c1NCCCCOc1ccccc1)CCc1cc2c(cc1-3)OCO2`, in experiment [1], the Ratio turned out to be 3.68. For the same molecule, the IC50 in experiment [2] worked out at 1200 nM; in experiment [3], 349 nM.
Broadly, the inhibition is the percentage by which the read-out fell short of the control. Low readings indicate a weak effect, high ones a strong effect. In the case of `COc1ccc(CCNc2c(OC)ccc3cc4[n+](cc23)CCc2cc3c(cc2-4)OCO3)cc1`, the values for the inhibition in experiment [4] and in experiment [5] were 79% and 91.1%, respectively. In addition, in experiment [1], the Ratio was 4.68. Further, the IC50 in experiment [2] is 2880 nM; in experiment [3], 990 nM.
With `COc1ccc2cc3[n+](cc2c1NCCCN(C)C)CCc1cc2c(cc1-3)OCO2`, the Ratio in experiment [1] worked out at 5.7. Besides, the figures for the IC50 in experiment [2] and in experiment [3] were 6320 nM and 576 nM, respectively.
For the molecule `COc1ccc2cc3[n+](cc2c1OC)CCc1cc2c(cc1-3)OCO2`, the results for the inhibition in experiment [4] and in experiment [5] were 8.9% and 36.3%, respectively.
Regarding `COc1ccc2cc3[n+](cc2c1NCc1ccccc1)CCc1cc2c(cc1-3)OCO2`, the Ratio in experiment [1] was 4.32. The IC50 in experiment [2] came to 2280 nM; in experiment [3], 936 nM.
As to `COc1ccc2cc3[n+](cc2c1NCCc1ccc(Cl)cc1Cl)CCc1cc2c(cc1-3)OCO2`, the inhibition worked out at 81.3% in experiment [4] and 93.6% in experiment [5]. The Ratio in experiment [1] stood at 3.36. Also, the IC50 in experiment [2] was found to be 424 nM; in experiment [3], 130 nM.
Turning to `COc1ccc2[nH]cc(CCNc3c(OC)ccc4cc5[n+](cc34)CCc3cc4c(cc3-5)OCO4)c2c1`, the Ratio in experiment [1] was found to be 6.06. In addition, the IC50 in experiment [2] came to 1390 nM; in experiment [3], 1260 nM.
As for `COc1ccc2cc3[n+](cc2c1OCCCCOc1ccccc1)CCc1cc2c(cc1-3)OCO2`, the Ratio in experiment [1] came to 1.
`COc1ccc2cc3[n+](cc2c1NCCOc1ccccc1)CCc1cc2c(cc1-3)OCO2`: the Ratio in experiment [1] amounted to 5.15. In addition, the results for the IC50 in experiment [2] and in experiment [3] were 727 nM and 688 nM, respectively.
For the molecule `COc1ccc(CCNc2c(OC)ccc3cc4[n+](cc23)CCc2cc3c(cc2-4)OCO3)cc1OC`, the inhibition in experiment [4] is 54.1%; in experiment [5], 70.1%. In addition, the Ratio in experiment [1] came to 5.3. The IC50 in experiment [2] stood at 5820 nM; in experiment [3] it was 160 nM.
Turning to `COc1ccc2cc3[n+](cc2c1NCCCc1ccccc1)CCc1cc2c(cc1-3)OCO2`, in experiment [1], the Ratio turned out to be 3.51. Moreover, the IC50 turned out to be 785 nM in experiment [2] and 680 nM in experiment [3].
As for `COc1ccc2cc3[n+](cc2c1NCCc1ccc(C)cc1)CCc1cc2c(cc1-3)OCO2`, the inhibition in experiment [4] amounted to 80%; in experiment [5] it was 94%. Moreover, the Ratio in experiment [1] stood at 4.56. Further, the IC50 was 821 nM in experiment [2] and 449 nM in experiment [3].
As to `COc1ccc2cc3[n+](cc2c1NCCc1ccc([N+](=O)[O-])cc1)CCc1cc2c(cc1-3)OCO2`, the inhibition was determined as 73.7% in experiment [4] and 82.6% in experiment [5]. The Ratio in experiment [1] worked out at 2.83. The IC50 was determined as 841 nM in experiment [2] and 693 nM in experiment [3].
Take `COc1ccc2cc3[n+](cc2c1NCCc1ccccn1)CCc1cc2c(cc1-3)OCO2`: the Ratio in experiment [1] came out at 6.4. For the same molecule, the IC50 stood at 2500 nM in experiment [2] and 1160 nM in experiment [3].
On to `COc1ccc2cc3[n+](cc2c1NCCc1cccs1)CCc1cc2c(cc1-3)OCO2`, for which the inhibition in experiment [4] came to 72.8%; in experiment [5] it was 87.8%. In experiment [1], the Ratio was determined as 4.18. In addition, the IC50 in experiment [2] stood at 555 nM; in experiment [3], 608 nM.
Regarding `COc1cc(/C=C/C(=O)CC(=O)/C=C/c2ccc(O)c(OC)c2)ccc1O`, the inhibition in experiment [4] was determined as 30.7%.
For `COc1ccc2cc3[n+](cc2c1NCCCCOc1cccc2ccccc12)CCc1cc2c(cc1-3)OCO2`, in experiment [1], the Ratio came out at 2.49. Moreover, the IC50 in experiment [2] is 511 nM; in experiment [3], 400 nM.
The matching figures for `COc1ccc2cc3[n+](cc2c1NCCCOc1ccccc1)CCc1cc2c(cc1-3)OCO2`: 5.4, 216 nM and 588 nM.
Turning to `COc1ccc2cc3[n+](cc2c1NCCc1cccc(C)c1)CCc1cc2c(cc1-3)OCO2`, the inhibition in experiment [4] turned out to be 79%; in experiment [5], 93.6%. Further, the Ratio in experiment [1] came out at 4.73. In addition, the IC50 in experiment [2] was 674 nM; in experiment [3], 91 nM.
The corresponding values for `COc1ccc2cc3[n+](cc2c1NCCc1ccccc1)CCc1cc2c(cc1-3)OCO2` are 79.2%, 92.2%, 4.8, 406 nM and 209 nM.
As for `COc1ccc2cc3[n+](cc2c1NC(C)c1ccccc1)CCc1cc2c(cc1-3)OCO2` (stereo unspecified), the Ratio in experiment [1] amounted to 2.17. Moreover, the IC50 was found to be 3280 nM in experiment [2] and 1910 nM in experiment [3].
Take `COc1ccc2cc3[n+](cc2c1NCC(C)C)CCc1cc2c(cc1-3)OCO2`: in experiment [1], the Ratio turned out to be 5.12. The IC50 in experiment [2] came out at 2020 nM; in experiment [3] it was 1140 nM.
The matching figures for `COc1ccc2cc3[n+](cc2c1NCCCCCOc1ccccc1)CCc1cc2c(cc1-3)OCO2`: 3.64, 1560 nM and 1090 nM.
In the case of `COc1ccc2cc3[n+](cc2c1NCCc1ccccc1C)CCc1cc2c(cc1-3)OCO2`, the inhibition in experiment [4] is 80%; in experiment [5], 95%. Besides, the Ratio in experiment [1] amounted to 4.05. Also, the IC50 in experiment [2] amounted to 713 nM; in experiment [3] it was 27 nM.
As for `COc1ccc2cc3[n+](cc2c1NCCCCOc1cccnc1)CCc1cc2c(cc1-3)OCO2`, in experiment [1], the Ratio worked out at 4.63. The IC50 in experiment [2] amounted to 2940 nM; in experiment [3] it was 1170 nM.
Regarding `COc1ccc2cc3[n+](cc2c1NCCc1ccc(F)cc1)CCc1cc2c(cc1-3)OCO2`, the figures for the inhibition in experiment [4] and in experiment [5] were 76.3% and 90.4%, respectively. Besides, in experiment [1], the Ratio worked out at 4.48. Also, the IC50 in experiment [2] amounted to 445 nM; in experiment [3] it was 238 nM.
Turning to `COc1ccc2cc3[n+](cc2c1NCCCCCCOc1ccccc1)CCc1cc2c(cc1-3)OCO2`, in experiment [1], the Ratio came to 2.8. Moreover, the IC50 in experiment [2] is 1300 nM; in experiment [3], 1420 nM.
